Measured values taken from patent EP4223882A1, “PROCESS FOR PRODUCING ALDONIC ACIDS” (Vilnius University, priority 2022, dated 2023).
Where two headings read alike, the source gives them in different places.

Tests used:
[1] = molecular target: T1, PQQGDH (Acinetobacter calcoaceticus, UniProt P13650); conditions: for cmax: sqrt(KM·Ki)
T1 sequence (P13650 25-478): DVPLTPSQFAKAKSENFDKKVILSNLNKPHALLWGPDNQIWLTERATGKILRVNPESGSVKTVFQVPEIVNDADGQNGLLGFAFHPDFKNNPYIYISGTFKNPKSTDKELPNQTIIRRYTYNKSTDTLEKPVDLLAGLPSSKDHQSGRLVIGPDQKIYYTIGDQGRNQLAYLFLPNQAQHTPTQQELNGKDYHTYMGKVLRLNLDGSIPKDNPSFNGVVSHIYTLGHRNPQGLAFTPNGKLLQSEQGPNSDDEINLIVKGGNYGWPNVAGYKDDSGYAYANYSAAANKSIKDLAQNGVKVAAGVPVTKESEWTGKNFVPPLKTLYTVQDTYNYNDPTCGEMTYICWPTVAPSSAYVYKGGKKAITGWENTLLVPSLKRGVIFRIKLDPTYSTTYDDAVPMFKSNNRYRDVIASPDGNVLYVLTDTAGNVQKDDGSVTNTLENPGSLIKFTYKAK
Experimental: (§1) The enzyme solution was prepared using deionized water and the molar concentration was calculated assuming the molecular mass of the enzyme to be 100 kDa.
(§2) The dependence of PQQGDH catalysed substrate oxidation rate of substrate concentration was estimated for various substrates at thionine concentration of 220 µM (Fig. 3). The dependence of thionine reduction rate on carbohydrate concentration was analysed by applying the equation X1 and the apparent parameters KM, Ki and Vmax were calculated: v = (s⋅Vmax)/(KM + s⋅(1+(s)/(Ki))) [formula]
(§3) The ratio of Vmax with Km was considered as the parameter specifying the reactivity of the various substrates - the higher the value of the ratio - the better substrate reactivity. Ki - is the enzyme inhibition by the substrate constant. The concentration of the substrate at which the rate of thionine reduction was maximal (Cmax) was calculated as sqrt(KM ⋅Ki) [formula] .

[2] = molecular target: T2, horseradish peroxidase (Armoracia rusticana, UniProt P00433); conditions: cited from earlier work
T2 sequence (P00433 31-338 limits assumed): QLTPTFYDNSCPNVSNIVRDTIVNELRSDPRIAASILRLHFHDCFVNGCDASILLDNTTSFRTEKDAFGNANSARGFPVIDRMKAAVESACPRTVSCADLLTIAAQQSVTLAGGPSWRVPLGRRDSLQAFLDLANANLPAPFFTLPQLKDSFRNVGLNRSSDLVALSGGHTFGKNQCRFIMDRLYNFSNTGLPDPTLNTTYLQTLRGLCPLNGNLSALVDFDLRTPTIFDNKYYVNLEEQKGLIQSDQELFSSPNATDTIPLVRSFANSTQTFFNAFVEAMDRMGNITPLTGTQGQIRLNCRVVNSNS

[3] = molecular target: T1, PQQGDH; assay: biochemical
Experimental: as §1, §2, §3

[4] = substrate: OC[C@H]1O[C@@H](O[C@H]2[C@H](O)[C@@H](O)C(O)O[C@@H]2CO)[C@H](O)[C@@H](O)[C@H]1O; assay: purified protein, by the assay type; conditions: apparent parameter
Experimental: as §1, §2, §3

[5] = substrate: O=C[C@H](O)[C@H](O)[C@H](O)CO; assay: purified protein, by the assay type; conditions: other: pH 7.0, thionine 220 µM, apparent parameter
Experimental: as §1, §2, §3

[6] = substrate: O=C[C@H](O)[C@@H](O)[C@H](O)CO; assay: purified protein, by the assay type; conditions: other: pH 7.0, thionine 220 µM, apparent parameter
Experimental: as §1, §2, §3

[7] = substrate: O=C[C@H](O)[C@@H](O)[C@@H](O)[C@H](O)CO; assay: purified protein, by the assay type; conditions: apparent parameter
Experimental: as §1, §2, §3

[8] = pH 7.0, thionine 220 µM, substrate concentration at maximal rate
[9] = pH 7.0, thionine 410 µM (asterisk)
[10] = Ki, pH 7.0, thionine 410 µM (asterisk), enzyme inhibition by the substrate constant
[11] = other: pH 7.0, thionine 410 µM (asterisk)

Question: Which “substrate concentration at which the maximal reaction rate was observed (cmax)” value (shortened to “substrate concentration”) [1] does the source give for `O=C[C@H](O)[C@@H](O)[C@@H](O)[C@H](O)CO` [Galactose] here?
Answer: Its value is under 20 mM.

Question: What does the source list for `O=C[C@H](O)[C@@H](O)[C@H](O)CO` [Xylose]?
Answer: substrate concentration at which the maximal reaction rate was observed (cmax) ([1]; grouping of substrates): > 20 mM; cmax [1, 8]: 88 ± 8 mM

Question: With `O=C[C@H](O)[C@H](O)[C@H](O)CO` [Ribose] as the molecule, how does the “substrate concentration” value ([1]; grouping of substrates) read?
Answer: Its value is over 20 mM.

Question: And the cmax [1, 8]?
Answer: Its cmax is 84 ± 39 mM.

Question: For `O=C[C@@H](O)[C@@H](O)[C@H](O)CO` [Lyxose], which “substrate concentration” value ([1]; grouping of substrates) is on record?
Answer: The value was over 20 mM.

Question: What about the Vmax ([1]; pH 7.0, thionine 220 µM, apparent parameter) of the same molecule?
Answer: The Vmax was 190 ± 40 s⁻¹.

Question: And the cmax [1, 8]?
Answer: The cmax was >10^4 mM.

Question: With `Nc1ccc2c(c1)Sc1cc(N)ccc1N2` [leuco thionine] as the molecule, how does the “bimolecular horseradish peroxidase and leuco thionine reactivity constant” value [2] read?
Answer: Its value is 4.8e+08 M⁻¹ s⁻¹.

Question: Which “substrate concentration” value ([1]; grouping of substrates) does the source give for `O=C[C@H](O)[C@@H](O)[C@H](O[C@@H]1O[C@H](CO)[C@@H](O)[C@H](O)[C@H]1O)[C@H](O)CO` [Cellobiose] here?
Answer: Its value is under 20 mM.

Question: And the cmax [1, 8]?
Answer: The cmax was 2.4 ± 0.2 mM.

Question: What about the cmax [1, 9] of the same molecule?
Answer: The cmax was 3.3 ± 0.2 mM.

Question: And the Ki [3]?
Answer: The Ki was 11 ± 1 mM.

Question: And the Ki [3, 10]?
Answer: The Ki was 21 ± 1 mM.

Question: For `OC[C@H]1O[C@@H](O[C@H]2[C@H](O)[C@@H](O)C(O)O[C@@H]2CO)[C@H](O)[C@@H](O)[C@H]1O` (stereo partly shown) [Lactose], which “substrate concentration” value ([1]; grouping of substrates) is on record?
Answer: The value was under 20 mM.

Question: What about the cmax [1, 8] of the same molecule?
Answer: The cmax was 5.2 ± 0.9 mM.

Question: What about the cmax [1, 9] of the same molecule?
Answer: The cmax was 6.4 ± 0.4 mM.

Question: What about the Ki [3] of the same molecule?
Answer: The Ki was 25 ± 2 mM.

Question: What about the Ki [3, 10] of the same molecule?
Answer: The Ki was 51 ± 2 mM.

B1: PQQGDH (Acinetobacter calcoaceticus) (protein)
chain: DVPLTPSQFAKAKSENFDKKVILSNLNKPHALLWGPDNQIWLTERATGKILRVNPESGSVKTVFQVPEIVNDADGQNGLLGFAFHPDFKNNPYIYISGTFKNPKSTDKELPNQTIIRRYTYNKSTDTLEKPVDLLAGLPSSKDHQSGRLVIGPDQKIYYTIGDQGRNQLAYLFLPNQAQHTPTQQELNGKDYHTYMGKVLRLNLDGSIPKDNPSFNGVVSHIYTLGHRNPQGLAFTPNGKLLQSEQGPNSDDEINLIVKGGNYGWPNVAGYKDDSGYAYANYSAAANKSIKDLAQNGVKVAAGVPVTKESEWTGKNFVPPLKTLYTVQDTYNYNDPTCGEMTYICWPTVAPSSAYVYKGGKKAITGWENTLLVPSLKRGVIFRIKLDPTYSTTYDDAVPMFKSNNRYRDVIASPDGNVLYVLTDTAGNVQKDDGSVTNTLENPGSLIKFTYKAK
Question: What does the source list for B1?
Answer: Km ([4]; other: pH 7.0, thionine 220 µM): 1.5 ± 0.1 mM; kcat ([4]; other: pH 7.0, thionine 220 µM): 380 ± 50 s⁻¹; Km [4, 11]: 0.61 ± 0.02 mM; kcat [4, 11]: 430 ± 10 s⁻¹; Km [5]: 21 ± 5 mM; kcat [5]: 250 ± 60 s⁻¹; Km [6]: 7.1 ± 0.3 mM; kcat [6]: 460 ± 20 s⁻¹; Km ([7]; other: pH 7.0, thionine 220 µM): 2.4 ± 0.2 mM; kcat ([7]; other: pH 7.0, thionine 220 µM): 350 ± 30 s⁻¹; Km [7, 11]: 1.8 ± 0.1 mM; kcat [7, 11]: 349 ± 2 s⁻¹
